# Patent publication US10669285B2, “Condensed [1,4] diazepine compounds as autotaxin (ATX) and lysophosphatidic acid (LPA) production inhibitors” (Hoffmann-La Roche Inc., priority 2014, dated 2020)
# Molecular target: ATX (human His-tagged) (Homo sapiens (Human), UniProt Q13822)
# Experiment: Human ATX enzyme inhibition assay (fluorescence quenching, MR121 substrate)
# Type: biochemical
# Settings: inhibitory activity against ATX; 30 nM ATX, 1 μM MR121 substrate, 30° C.
# Protocol: Human ATX Enzyme Inhibition Assay
# ATX inhibition was measured by a fluorescence quenching assay using a specifically labeled substrate analogue (MR121 substrate). To obtain this MR121 substrate, BOC and TBS protected 6-amino-hexanoic acid (R)-3-({2-[3-(2-{2-[2-(2-amino-ethoxy)-ethoxy]-ethoxy}-ethoxy)-propionylamino]-ethoxy}-hydroxy-phosphoryloxy)-2-hydroxy-propyl ester (Ferguson et al., Org Lett 2006, 8 (10), 2023) was labeled with MR121 fluorophore (CAS 185308-24-1, 1-(3-carboxypropyl)-11-ethyl-1,2,3,4,8,9,10,11-octahydro-dipyrido[3,2-b:2′,3′-i]phenoxazin-13-ium) on the free amine of the ethanolamine side and then, after deprotection, subsequently with tryptophan on the side of the aminohexanoic acid.
# Assay working solutions were made as follows:
# Assay buffer (50 mM Tris-HCl, 140 mM NaCl, 5 mM KCl, 1 mM CaCl2, 1 mM MgCl2, 0.01% Triton-X-100, pH 8.0;
# ATX solution: ATX (human His-tagged) stock solution (1.08 mg/mL in 20 mM bicine, pH 8.5, 0.15 M NaCl, 10% glycerol, 0.3% CHAPS, 0.02% NaN3), diluted to 1.4-2.5× final concentration in assay buffer;
# MR121 substrate solution: MR121 substrate stock solution (800 μM MR121 substrate in DMSO), diluted to 2-5× final concentration in assay buffer.
# Test compounds (10 mM stock in DMSO, 8 μL) were obtained in 384 well sample plates (Corning Costar #3655) and diluted with 8 μL DMSO. Row-wise serial dilutions were made by transferring 8 μL cpd solution to the next row up to […]. The compound and control solutions were mixed five times and 2 μL were transferred to 384 well assay plates (Corning Costar #3702). Then, 15 μL of 41.7 nM ATX solution was added (30 nM final concentration), mixed five times and then incubated for 15 minutes at 30° C. 10 μL of MR121 substrate solution was added (1 μM final concentration), mixed 30 times and then incubated for 15 minutes at 30° C. Fluorescence was then measured every 2 minutes for 1 hour (Perkin Elmer plate: vision multimode reader); light intensity: 2.5%; exp. time: 1.4 sec, Filter: Fluo_630/690 nm) and IC50 values were calculated from these readouts.
row,SMILES,IC50
1,"O=C(/C=C/c1ccc(OC(F)F)c(F)c1)N1CCc2cc(C(=O)N3CCc4[nH]nnc4C3)nn2CC1 [Example 25, (E)-3-[4-(difluoromethoxy)-3-fluorophenyl]-1-[2-(1,4,6,7-tetrahydrotriazolo[4,5-c]pyridine-5-carbonyl)-4,5,7,8-tetrahydropyrazolo[1,5-d][1,4]diazepin-6-yl]prop-2-en-1-one]",7 nM
2,"O=C(OCc1ccccc1)N1CCc2cc(C(=O)N3CCc4[nH]nnc4C3)nn2CC1 [Example 1, Benzyl 2-(1,4,6,7-tetrahydrotriazolo[4,5-c]pyridine-5-carbonyl)-4,5,7,8-tetrahydropyrazolo[1,5-d][1,4]diazepine-6-carboxylate]",158 nM
3,"CC(C)c1cc(C#N)ccc1COC(=O)N1CCc2cc(C(=O)N3CCc4[nH]nnc4C3)nn2CC1 [Example 9, (4-Cyano-2-propan-2-ylphenyl)methyl 2-(1,4,6,7-tetrahydrotriazolo[4,5-c]pyridine-5-carbonyl)-4,5,7,8-tetrahydropyrazolo[1,5-d][1,4]diazepine-6-carboxylate]",6 nM
4,"N#Cc1ccc(COC(=O)N2CCc3cc(C(=O)N4CCc5[nH]nnc5C4)nn3CC2)cc1 [Example 6, 4-Cyanobenzyl 2-(4,5,6,7-tetrahydro-1H-[1,2,3]triazolo[4,5-c]pyridine-5-carbonyl)-7,8-dihydro-4H-pyrazolo[1,5-d][1,4]diazepine-6(5H)-carboxylate]",4 nM
5,"N#Cc1ccc(COC(=O)N2CCc3cc(C(=O)N4CCc5[nH]nnc5C4)nn3CC2)cc1F [Example 7, 4-Cyano-3-fluorobenzyl 2-(4,5,6,7-tetrahydro-1H-[1,2,3]triazolo[4,5-c]pyridine-5-carbonyl)-7,8-dihydro-4H-pyrazolo[1,5-d][1,4]diazepine-6(5H)-carboxylate]",70 nM
6,"COc1ccc(COC(=O)N2CCc3cc(C(=O)N4CCc5[nH]nnc5C4)nn3CC2)cc1F [Example 32, 3-fluoro-4-methoxybenzyl 2-(4,5,6,7-tetrahydro-1H-[1,2,3]triazolo[4,5-c]pyridine-5-carbonyl)-7,8-dihydro-4H-pyrazolo[1,5-d][1,4]diazepine-6(5H)-carboxylate]",30 nM
7,"O=C(CCc1ccc(OC(F)F)c(F)c1)N1CCc2cc(C(=O)N3CCc4[nH]nnc4C3)nn2CC1 [Example 26, 3-[4-(difluoromethoxy)-3-fluorophenyl]-1-[2-(1,4,6,7-tetrahydrotriazolo[4,5-c]pyridine-5-carbonyl)-4,5,7,8-tetrahydropyrazolo[1,5-d][1,4]diazepin-6-yl]propan-1-one]",16 nM
8,"CCc1cc(C#N)ccc1OCC(=O)N1CCc2cc(C(=O)N3CCc4[nH]nnc4C3)nn2CC1 [Example 16, 3-Ethyl-4-(2-oxo-2-(2-(4,5,6,7-tetrahydro-1H-[1,2,3]triazolo[4,5-c]pyridine-5-carbonyl)-7,8-dihydro-4H-pyrazolo[1,5-d][1,4]diazepin-6(5H)-yl)ethoxy)benzonitrile]",12 nM
9,"N#Cc1ccc(OCC(=O)N2CCc3cc(C(=O)N4CCc5[nH]nnc5C4)nn3CC2)c(C2CC2)c1 [Example 15, 3-Cyclopropyl-4-(2-oxo-2-(2-(4,5,6,7-tetrahydro-1H-[1,2,3]triazolo[4,5-c]pyridine-5-carbonyl)-7,8-dihydro-4H-pyrazolo[1,5-d][1,4]diazepin-6(5H)-yl)ethoxy)benzonitrile]",11 nM
10,"O=C(OCc1cccc(F)c1)N1CCc2cc(C(=O)N3CCc4[nH]nnc4C3)nn2CC1 [Example 29, 3-fluorobenzyl 2-(4,5,6,7-tetrahydro-1H-[1,2,3]triazolo[4,5-c]pyridine-5-carbonyl)-7,8-dihydro-4H-pyrazolo[1,5-d][1,4]diazepine-6(5H)-carboxylate]",38 nM

# Next, values leading:
row,IC50,SMILES
1,7 nM,"O=C(OCc1ccc(OC(F)(F)F)cc1F)N1CCc2cc(C(=O)N3CCc4[nH]nnc4C3)nn2CC1 [Example 4, 2-Fluoro-4-(trifluoromethoxy)benzyl 2-(4,5,6,7-tetrahydro-1H-[1,2,3]triazolo[4,5-c]pyridine-5-carbonyl)-7,8-dihydro-4H-pyrazolo[1,5-d][1,4]diazepine-6(5H)-carboxylate]"
2,13 nM,"O=C(OCc1ccc(OC(F)(F)F)cc1F)N1CCc2nc(C(=O)N3CCc4[nH]nnc4C3)nn2CC1 [Example 35, [2-fluoro-4-(trifluoromethoxy)phenyl]methyl 2-(1,4,6,7-tetrahydrotriazolo[4,5-c]pyridine-5-carbonyl)-5,6,8,9-tetrahydro-[1,2,4]triazolo[1,5-d][1,4]diazepine-7-carboxylate]"
3,18 nM,"O=C(OCc1ccc(OC(F)(F)F)c(F)c1)N1CCc2cc(C(=O)N3CCc4[nH]nnc4C3)nn2CC1 [Example 3, [3-Fluoro-4-(trifluoromethoxy)phenyl]methyl 2-(1,4,6,7-tetrahydrotriazolo[4,5-c]pyridine-5-carbonyl)-4,5,7,8-tetrahydropyrazolo[1,5-d][1,4]diazepine-6-carboxylate]"
4,15 nM,"O=C(OCc1ccc(OC(F)(F)F)cc1)N1CCc2nc(C(=O)N3CCc4[nH]nnc4C3)nn2CC1 [Example 11, [4-(Trifluoromethoxy)phenyl]methyl 2-(1,4,6,7-tetrahydrotriazolo[4,5-c]pyridine-5-carbonyl)-5,6,8,9-tetrahydro-[1,2,4]triazolo[1,5-d][1,4]diazepine-7-carboxylate]"
5,17 nM,"O=C(CCc1ccc(OC(F)(F)F)c(F)c1)N1CCc2nc(C(=O)N3CCc4[nH]nnc4C3)nn2CC1 [Example 21, 3-[3-fluoro-4-(trifluoromethoxy)phenyl]-1-[2-(1,4,6,7-tetrahydrotriazolo[4,5-c]pyridine-5-carbonyl)-5,6,8,9-tetrahydro-[1,2,4]triazolo[1,5-d][1,4]diazepin-7-yl]propan-1-one]"
6,22 nM,"O=C(OCc1ccc(OC(F)F)c(F)c1)N1CCc2cc(C(=O)N3CCc4[nH]nnc4C3)nn2CC1 [Example 31, 4-(difluoromethoxy)-3-fluorobenzyl 2-(4,5,6,7-tetrahydro-1H-[1,2,3]triazolo[4,5-c]pyridine-5-carbonyl)-7,8-dihydro-4H-pyrazolo[1,5-d][1,4]diazepine-6(5H)-carboxylate]"
7,13 nM,"O=C(CCc1ccc(OC(F)(F)F)c(F)c1)N1CCc2cc(C(=O)N3CCc4[nH]nnc4C3)nn2CC1 [Example 18, 3-[3-fluoro-4-(trifluoromethoxy)phenyl]-1-[2-(1,4,6,7-tetrahydrotriazolo[4,5-c]pyridine-5-carbonyl)-4,5,7,8-tetrahydropyrazolo[1,5-d][1,4]diazepin-6-yl]propan-1-one]"
8,67 nM,"CC(C)(C)C(=O)Nc1cc(C#N)ccc1COC(=O)N1CCc2nc(C(=O)N3CCc4[nH]nnc4C3)nn2CC1 [Example 12, [4-Cyano-2-(2,2-dimethylpropanoylamino)phenyl]methyl 2-(1,4,6,7-tetrahydrotriazolo[4,5-c]pyridine-5-carbonyl)-5,6,8,9-tetrahydro-[1,2,4]triazolo[1,5-d][1,4]diazepine-7-carboxylate]"
9,9 nM,"O=C(OCc1ccc(OC(F)(F)F)c(Cl)c1)N1CCc2cc(C(=O)N3CCc4[nH]nnc4C3)nn2CC1 [Example 37, 3-chloro-4-(trifluoromethoxy)benzyl 2-(4,5,6,7-tetrahydro-1H-[1,2,3]triazolo[4,5-c]pyridine-5-carbonyl)-7,8-dihydro-4H-pyrazolo[1,5-d][1,4]diazepine-6(5H)-carboxylate]"
10,2 nM,"O=C(OCc1ccc(OC(F)(F)F)cc1)N1CCc2cc(C(=O)N3CCc4[nH]nnc4C3)nn2CC1 [Example 5, [4-(Trifluoromethoxy)phenyl]methyl 2-(1,4,6,7-tetrahydrotriazolo[4,5-c]pyridine-5-carbonyl)-4,5,7,8-tetrahydropyrazolo[1,5-d][1,4]diazepine-6-carboxylate]"
11,14 nM,"O=C(CCc1ccc(OC(F)(F)F)cc1)N1CCc2cc(C(=O)N3CCc4[nH]nnc4C3)nn2CC1 [Example 14, 1-[2-(1,4,6,7-tetrahydrotriazolo[4,5-c]pyridine-5-carbonyl)-4,5,7,8-tetrahydropyrazolo[1,5-d][1,4]diazepin-6-yl]-3-[4-(trifluoromethoxy)phenyl]propan-1-one]"
12,94 nM,"COc1ccc(COC(=O)N2CCc3cc(C(=O)N4CCc5[nH]nnc5C4)nn3CC2)c(C)c1 [Example 33, 4-methoxy-2-methylbenzyl 2-(4,5,6,7-tetrahydro-1H-[1,2,3]triazolo[4,5-c]pyridine-5-carbonyl)-7,8-dihydro-4H-pyrazolo[1,5-d][1,4]diazepine-6(5H)-carboxylate]"
